What all share (assay): growth of human tumour cells (NCI), 48 h
Assay [1] deals with HOP-62 NSCLC.
The test system of assay [2] is HS 578T breast.
Assay [3] has as its system MALME-3M melanoma.
Assay [4] relates to NCI-H23 lung.
Assay [5] deals with OVCAR-5 ovarian.
For assay [6], the system named is RXF 393 renal.
Assay [7] concerns SF-268 CNS.
For assay [8], the system named is SN12C renal.
For assay [9], the system named is SW-620 colon.
For assay [10], the system named is UACC-257 melanoma.

SMILES strings stand for the structures.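 A five-concentration, 48-hour dose response in 96-well plates underlies each endpoint, interpolated linearly between surrounding concentrations. Abbreviation: GI50, concentration required for 50% inhibition of growth. TGI: concentration producing complete growth inhibition.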 Where only a bound is given, the exact number is not on record here.

With `C#C[C@]1(O)CC[C@H]2[C@@H]3CC=C4c5nc(Nc6ccc(OC)cc6OC)sc5CC[C@]4(C)[C@H]3CC[C@@]21C`, the GI50 in assay [1] was 1.93 µM; in assay [2], 0.411 µM; in assay [3], 0.655 µM; in [4], 2.18 µM; in assay [5] it was 2.53 µM; in assay [6], 0.262 µM. Moreover, the GI50 in assay [7] is 1.75 µM; in assay [8], 3.36 µM; in assay [9], 1.55 µM; in [10], 1.57 µM. Besides, the TGI amounted to 7.37 µM in assay [1]; 2.36 µM in [2]; 2.85 µM in assay [3]; 12 µM in [4]; 12.2 µM in assay [5]; 0.608 µM in assay [6]. For the same compound, the TGI in [7] was found to be 6.65 µM; in assay [8], 19.2 µM; in assay [9] it was 3.71 µM; in assay [10], 4.99 µM.
As for `O=C1c2cccc3c(N4CCN(c5ccc6c7c(cccc57)C(=O)N(CCN5CCNCC5)C6=O)CC4)ccc(c23)C(=O)N1CCN1CCNCC1`, the GI50 is 7.96 µM in assay [1]; 17.2 µM in [2]; 17.5 µM in [3]; 11 µM in assay [4]; 15.1 µM in assay [5]; 16.8 µM in [6]. Besides, the GI50 was 16.8 µM in [7], 7.46 µM in assay [8], 7.64 µM in assay [9] and 19.5 µM in [10]. Besides, the TGI was determined as 27.7 µM in [1]; 44.8 µM in [2]; 40 µM in assay [3]; 26.3 µM in assay [4]; 34.1 µM in [5]; 33 µM in assay [6]. For the same compound, the TGI amounted to 70.7 µM in assay [7], 23.2 µM in [8], 77.7 µM in [9] and 37.9 µM in assay [10].
On to `O=C(c1cccs1)c1c(C(F)(F)F)n([O-])c2cc(F)c(F)cc2[n+]1=O`, for which the GI50 is 3.77 µM in assay [1]; 1.21 µM in assay [2]; 0.79 µM in [3]; 2.26 µM in assay [4]; 3.57 µM in assay [5]; 2.42 µM in assay [6]. Further, the GI50 in [7] is 2.99 µM; in assay [8], 1.38 µM; in assay [9], 2.45 µM; in [10], 3.11 µM. In addition, the TGI came out at 6.21 µM in assay [1]; 12.1 µM in assay [2]; 1.52 µM in assay [3]; 4.94 µM in assay [4]; 5.58 µM in [5]; 7.16 µM in assay [6]. For the same compound, the TGI in assay [7] was determined as 6.88 µM; in assay [8], 3.59 µM; in [9] it was 4.09 µM; in [10], 6.79 µM.
In the case of `N#Cc1ccc(-n2cnc(NC(=O)[C@H]3CCN(C#N)C3)c2)cc1`, the GI50 in [1] was 2.28 µM; in [2] it was 1.9 µM; in [3], 0.312 µM; in assay [4], 1.78 µM; in assay [5] it was 3.3 µM; in assay [6] it was 0.374 µM. The GI50 in assay [7] is 2.83 µM; in assay [8], 2.72 µM; in assay [9], 1.46 µM; in assay [10], 1.94 µM. Further, the TGI is 15.5 µM in assay [1]; 13.6 µM in assay [2]; 6.58 µM in assay [3]; 12.6 µM in [4]; greater than 100 µM in [5]; 2.6 µM in assay [6]. The TGI in assay [7] was 25.5 µM; in assay [8] it was greater than 70.3 µM; in [9], 26.4 µM; in assay [10], 10.1 µM.
For the compound `NC(=O)c1c(OCc2c(F)cc(Br)cc2F)nsc1NC(=O)NCCCCN1CCCC1`, the GI50 in [1] was 1.58 µM; in [2] it was 0.157 µM; in [3] it was 1.73 µM; in assay [4], 5.18 µM; in [5] it was 3.1 µM; in assay [6] it was 0.362 µM. The GI50 in assay [7] is 1.78 µM; in [8], 1.08 µM; in [9], 3.03 µM; in [10] it was 1.85 µM. For the same compound, the TGI in assay [1] is greater than 10 µM; in assay [2], 0.971 µM; in assay [3], 3.41 µM; in assay [4] it was greater than 10 µM; in assay [5] it was greater than 10 µM; in assay [6], 1.71 µM. Besides, the TGI in assay [7] was greater than 10 µM; in [8], 8.28 µM; in assay [9] it was greater than 10 µM; in [10] it was 3.94 µM.
Turning to `Nc1cc(C(F)F)c(-c2nc(N3[C@@H]4CC[C@H]3COC4)nc(N3[C@@H]4CC[C@H]3COC4)n2)cn1`, the GI50 in [1] was 0.161 µM; in assay [2] it was 0.18 µM; in assay [3] it was 0.0713 µM; in assay [4], 0.652 µM; in assay [5], 0.3 µM; in assay [6], 0.18 µM. Also, the GI50 is 0.374 µM in assay [7], 0.342 µM in assay [8], 0.803 µM in [9] and 0.295 µM in [10]. Further, the TGI in assay [1] is 2.36 µM; in assay [2] it was 0.908 µM; in assay [3], 0.877 µM; in assay [4], greater than 100 µM; in assay [5], 43 µM; in assay [6], 0.816 µM. The TGI in assay [7] was greater than 100 µM; in assay [8], greater than 100 µM; in [9], greater than 100 µM; in [10], 4.31 µM.
Regarding `NC1=C(c2nc(-c3cc4ccccc4oc3=O)cs2)C(c2ccco2)c2c(c3ccccc3oc2=O)O1` (stereo not given), the GI50 in assay [1] was 22.4 µg/mL; in assay [2], 39.6 µg/mL; in assay [3], 120 µg/mL; in [4], greater than 150 µg/mL; in assay [5], greater than 150 µg/mL; in assay [6] it was 17.3 µg/mL. Further, the GI50 in [7] is 68.4 µg/mL; in assay [8], greater than 150 µg/mL; in [9], greater than 150 µg/mL; in assay [10], greater than 150 µg/mL. Besides, the TGI is 81.1 µg/mL in assay [1]; 139 µg/mL in assay [2]; greater than 150 µg/mL in assay [3]; greater than 150 µg/mL in [4]; greater than 150 µg/mL in assay [5]; 114 µg/mL in assay [6]. Besides, the TGI in [7], in assay [8], in assay [9] and in [10] was greater than 150 µg/mL throughout.

The values are drawn from PubChem BioAssay (NCI).
